This note sets out measurements from ChEMBL document CHEMBL5465560, “Selectivity Literature for EUbOPEN Chemogenomic Library” (2024).

Assay [1] concerns the target Ribosomal protein S6 kinase alpha-3 (Homo sapiens, UniProt P51812). Briefly: Selectivity interaction (Ambit KINOMEscan and KiNATiv profiling in Jurkat cells) EUB0000090b RPS6KA3. It counts as cell-based. To be noted: at 1 µM.
The target of assay [2] is Mitogen-activated protein kinase 9 (Homo sapiens, UniProt P45984). Briefly: Selectivity interaction (Millipore kinase profiler) EUB0000124b MAPK9. To be noted: at 10 µM.
Mitogen-activated protein kinase 9, sequence (P45984 whole entry, looked up): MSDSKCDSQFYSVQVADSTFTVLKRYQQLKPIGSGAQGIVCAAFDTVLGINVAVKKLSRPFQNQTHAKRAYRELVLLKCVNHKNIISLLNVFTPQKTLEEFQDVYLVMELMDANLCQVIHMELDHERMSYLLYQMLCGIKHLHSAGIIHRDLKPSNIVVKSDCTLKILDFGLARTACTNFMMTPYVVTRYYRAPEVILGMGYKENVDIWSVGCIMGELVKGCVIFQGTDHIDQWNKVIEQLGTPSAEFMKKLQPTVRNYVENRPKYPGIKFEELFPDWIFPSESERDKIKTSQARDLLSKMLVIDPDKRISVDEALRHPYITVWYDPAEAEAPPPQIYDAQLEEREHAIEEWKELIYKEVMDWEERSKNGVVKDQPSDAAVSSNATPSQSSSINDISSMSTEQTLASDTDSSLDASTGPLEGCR
Assay [3] concerns the target T1, Mitogen-activated protein kinase kinase kinase 12 (Homo sapiens) (UniProt Q12852).
T1 sequence (whole entry): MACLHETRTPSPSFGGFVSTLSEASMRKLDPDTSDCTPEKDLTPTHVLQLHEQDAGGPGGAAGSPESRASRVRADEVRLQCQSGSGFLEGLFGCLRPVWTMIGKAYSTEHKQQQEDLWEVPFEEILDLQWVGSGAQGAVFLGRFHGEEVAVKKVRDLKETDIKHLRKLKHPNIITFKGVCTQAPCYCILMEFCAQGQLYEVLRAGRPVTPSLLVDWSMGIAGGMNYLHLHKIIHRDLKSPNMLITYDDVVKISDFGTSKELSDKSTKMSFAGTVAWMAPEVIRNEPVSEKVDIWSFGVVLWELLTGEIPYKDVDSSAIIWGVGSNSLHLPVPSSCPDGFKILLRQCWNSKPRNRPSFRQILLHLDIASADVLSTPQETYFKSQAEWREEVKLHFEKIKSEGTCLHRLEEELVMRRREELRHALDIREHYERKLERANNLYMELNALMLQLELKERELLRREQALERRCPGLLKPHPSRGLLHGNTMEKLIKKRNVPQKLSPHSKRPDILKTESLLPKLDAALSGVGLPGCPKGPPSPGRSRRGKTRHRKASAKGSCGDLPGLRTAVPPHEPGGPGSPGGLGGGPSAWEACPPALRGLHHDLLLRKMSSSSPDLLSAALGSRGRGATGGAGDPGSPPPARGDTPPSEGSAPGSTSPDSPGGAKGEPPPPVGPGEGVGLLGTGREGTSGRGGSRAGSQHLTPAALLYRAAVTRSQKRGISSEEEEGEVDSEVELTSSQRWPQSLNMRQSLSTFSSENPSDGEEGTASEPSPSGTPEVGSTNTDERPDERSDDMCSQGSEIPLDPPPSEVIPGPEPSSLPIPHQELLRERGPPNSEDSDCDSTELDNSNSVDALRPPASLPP
Briefly: Selectivity interaction (KinomeScan (DiscoverX)) EUB0000655a MAP3K12. To be noted: at 10 µM.

For assay [4], the target named is Tyrosine-protein kinase SYK (Homo sapiens, UniProt P43405). Briefly: Selectivity interaction (KinomeScan (DiscoverX)) EUB0000655a SYK. To be noted: at 10 µM.
Assay [5] concerns the target Ribosomal protein S6 kinase alpha-6 (Homo sapiens, UniProt Q9UK32). Briefly: Selectivity interaction (KinomeScan (DiscoverX)) EUB0000045b RPS6KA6. To be noted: at 10 µM.
Assay [6] addresses T2, Dual specificity mitogen-activated protein kinase kinase 5 (Homo sapiens) (UniProt Q13163).
T2 sequence (whole entry): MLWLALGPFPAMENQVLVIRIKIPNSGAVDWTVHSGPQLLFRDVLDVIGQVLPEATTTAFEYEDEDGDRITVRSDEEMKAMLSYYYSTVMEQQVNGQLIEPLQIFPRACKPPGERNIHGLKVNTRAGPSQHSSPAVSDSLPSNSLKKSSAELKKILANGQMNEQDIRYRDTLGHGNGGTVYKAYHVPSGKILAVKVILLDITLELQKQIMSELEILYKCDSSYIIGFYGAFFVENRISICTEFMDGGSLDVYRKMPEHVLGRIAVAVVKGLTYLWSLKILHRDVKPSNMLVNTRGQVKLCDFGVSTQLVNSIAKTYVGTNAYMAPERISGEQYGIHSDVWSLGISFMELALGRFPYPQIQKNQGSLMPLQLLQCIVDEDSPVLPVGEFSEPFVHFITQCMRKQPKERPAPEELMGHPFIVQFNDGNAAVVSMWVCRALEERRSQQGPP
Briefly: Selectivity interaction (KinomeScan (DiscoverX)) EUB0000607a MAP2K5. To be noted: at 10 µM.

The target in assay [7] is T3, Rhodopsin kinase GRK7 (Homo sapiens) (UniProt Q8WTQ7).
T3 sequence (whole entry): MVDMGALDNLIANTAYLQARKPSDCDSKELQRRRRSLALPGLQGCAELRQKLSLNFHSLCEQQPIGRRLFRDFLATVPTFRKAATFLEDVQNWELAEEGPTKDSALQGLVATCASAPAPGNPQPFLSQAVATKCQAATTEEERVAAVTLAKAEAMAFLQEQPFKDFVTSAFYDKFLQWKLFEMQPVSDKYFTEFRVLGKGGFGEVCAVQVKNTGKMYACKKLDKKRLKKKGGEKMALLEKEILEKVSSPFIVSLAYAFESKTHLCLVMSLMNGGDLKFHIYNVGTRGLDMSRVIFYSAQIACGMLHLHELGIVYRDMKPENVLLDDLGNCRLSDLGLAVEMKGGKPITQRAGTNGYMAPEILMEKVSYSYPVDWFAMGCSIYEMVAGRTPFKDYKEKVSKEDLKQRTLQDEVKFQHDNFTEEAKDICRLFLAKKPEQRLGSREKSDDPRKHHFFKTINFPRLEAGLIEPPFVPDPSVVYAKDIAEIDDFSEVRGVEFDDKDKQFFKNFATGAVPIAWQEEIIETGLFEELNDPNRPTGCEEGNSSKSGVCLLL
Put plainly: Selectivity interaction (Kinase panel (Invitrogen)) EUB0000639a GRK7. To be noted: at 200 nM.

Assay [8] concerns the target T4, Mitogen-activated protein kinase kinase kinase 7 (Homo sapiens) (UniProt O43318).
T4 sequence (whole entry): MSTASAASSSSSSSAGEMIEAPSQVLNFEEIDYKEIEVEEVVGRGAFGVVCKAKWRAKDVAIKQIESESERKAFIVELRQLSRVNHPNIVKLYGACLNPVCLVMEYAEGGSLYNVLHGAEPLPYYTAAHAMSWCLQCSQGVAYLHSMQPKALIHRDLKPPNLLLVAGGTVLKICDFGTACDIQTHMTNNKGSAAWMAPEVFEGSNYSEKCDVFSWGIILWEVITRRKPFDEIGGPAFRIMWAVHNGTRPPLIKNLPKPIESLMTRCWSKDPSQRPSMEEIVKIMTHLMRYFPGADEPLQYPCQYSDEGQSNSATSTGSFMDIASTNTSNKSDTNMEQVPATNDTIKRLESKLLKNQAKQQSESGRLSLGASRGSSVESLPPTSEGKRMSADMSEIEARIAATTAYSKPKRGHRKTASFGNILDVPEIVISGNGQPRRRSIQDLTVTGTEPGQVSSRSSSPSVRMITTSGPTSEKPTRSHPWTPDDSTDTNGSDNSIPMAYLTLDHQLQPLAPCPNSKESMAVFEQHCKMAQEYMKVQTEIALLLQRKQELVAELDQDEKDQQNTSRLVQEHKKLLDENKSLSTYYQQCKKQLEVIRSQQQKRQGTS
Put plainly: Selectivity interaction (KinomeScan (DiscoverX)) EUB0000595a MAP3K7. To be noted: at 10 µM.

Assay [9] concerns the target Phosphatidylinositol 4-kinase beta (Homo sapiens, UniProt Q9UBF8). Briefly: Selectivity interaction (KinomeScan (DiscoverX)) EUB0000618a PI4KB. To be noted: at 10 µM.

Phosphatidylinositol 4-kinase beta, sequence (Q9UBF8 2-816 limits assumed): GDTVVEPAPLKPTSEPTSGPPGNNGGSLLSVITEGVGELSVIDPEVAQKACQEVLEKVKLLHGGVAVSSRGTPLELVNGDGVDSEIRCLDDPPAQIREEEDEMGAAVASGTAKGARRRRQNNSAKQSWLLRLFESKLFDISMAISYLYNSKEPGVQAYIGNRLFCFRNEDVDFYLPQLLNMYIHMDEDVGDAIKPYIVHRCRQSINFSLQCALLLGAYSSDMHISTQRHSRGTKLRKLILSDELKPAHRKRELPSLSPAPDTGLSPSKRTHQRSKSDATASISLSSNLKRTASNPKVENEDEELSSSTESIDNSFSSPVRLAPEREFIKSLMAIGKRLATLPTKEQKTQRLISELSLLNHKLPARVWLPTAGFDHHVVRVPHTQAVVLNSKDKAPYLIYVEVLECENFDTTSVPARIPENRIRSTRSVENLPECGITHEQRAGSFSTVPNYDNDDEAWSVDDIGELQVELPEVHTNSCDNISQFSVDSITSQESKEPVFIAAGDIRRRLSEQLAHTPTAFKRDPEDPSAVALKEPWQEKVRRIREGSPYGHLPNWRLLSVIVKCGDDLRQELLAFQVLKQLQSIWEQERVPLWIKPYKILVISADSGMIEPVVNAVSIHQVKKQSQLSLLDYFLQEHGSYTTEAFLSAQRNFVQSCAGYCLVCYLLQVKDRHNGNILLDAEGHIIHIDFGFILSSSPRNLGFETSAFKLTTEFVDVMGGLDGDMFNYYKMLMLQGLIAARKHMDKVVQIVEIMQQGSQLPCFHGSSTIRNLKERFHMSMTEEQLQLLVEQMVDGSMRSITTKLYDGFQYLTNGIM
Ribosomal protein S6 kinase alpha-6, sequence (Q9UK32 whole entry): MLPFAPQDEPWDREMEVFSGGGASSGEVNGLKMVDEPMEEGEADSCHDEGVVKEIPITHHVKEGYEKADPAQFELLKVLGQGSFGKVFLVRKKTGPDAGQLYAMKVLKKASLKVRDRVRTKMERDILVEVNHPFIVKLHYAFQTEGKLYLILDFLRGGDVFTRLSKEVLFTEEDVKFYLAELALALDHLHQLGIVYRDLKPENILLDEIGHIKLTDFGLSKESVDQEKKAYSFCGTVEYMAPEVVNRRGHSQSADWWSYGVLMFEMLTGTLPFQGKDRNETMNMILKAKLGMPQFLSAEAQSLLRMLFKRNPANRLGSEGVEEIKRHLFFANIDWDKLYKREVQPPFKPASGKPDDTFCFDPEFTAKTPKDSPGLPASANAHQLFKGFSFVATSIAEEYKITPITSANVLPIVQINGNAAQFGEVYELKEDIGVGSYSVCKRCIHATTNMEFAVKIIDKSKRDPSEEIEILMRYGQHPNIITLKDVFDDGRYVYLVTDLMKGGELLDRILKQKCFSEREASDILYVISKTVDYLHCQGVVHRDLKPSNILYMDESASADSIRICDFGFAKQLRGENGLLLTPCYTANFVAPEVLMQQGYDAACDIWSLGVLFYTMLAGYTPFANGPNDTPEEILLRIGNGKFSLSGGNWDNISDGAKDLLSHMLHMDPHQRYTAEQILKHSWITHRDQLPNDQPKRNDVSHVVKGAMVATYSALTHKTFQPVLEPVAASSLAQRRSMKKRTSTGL
Ribosomal protein S6 kinase alpha-3, sequence (P51812 whole entry): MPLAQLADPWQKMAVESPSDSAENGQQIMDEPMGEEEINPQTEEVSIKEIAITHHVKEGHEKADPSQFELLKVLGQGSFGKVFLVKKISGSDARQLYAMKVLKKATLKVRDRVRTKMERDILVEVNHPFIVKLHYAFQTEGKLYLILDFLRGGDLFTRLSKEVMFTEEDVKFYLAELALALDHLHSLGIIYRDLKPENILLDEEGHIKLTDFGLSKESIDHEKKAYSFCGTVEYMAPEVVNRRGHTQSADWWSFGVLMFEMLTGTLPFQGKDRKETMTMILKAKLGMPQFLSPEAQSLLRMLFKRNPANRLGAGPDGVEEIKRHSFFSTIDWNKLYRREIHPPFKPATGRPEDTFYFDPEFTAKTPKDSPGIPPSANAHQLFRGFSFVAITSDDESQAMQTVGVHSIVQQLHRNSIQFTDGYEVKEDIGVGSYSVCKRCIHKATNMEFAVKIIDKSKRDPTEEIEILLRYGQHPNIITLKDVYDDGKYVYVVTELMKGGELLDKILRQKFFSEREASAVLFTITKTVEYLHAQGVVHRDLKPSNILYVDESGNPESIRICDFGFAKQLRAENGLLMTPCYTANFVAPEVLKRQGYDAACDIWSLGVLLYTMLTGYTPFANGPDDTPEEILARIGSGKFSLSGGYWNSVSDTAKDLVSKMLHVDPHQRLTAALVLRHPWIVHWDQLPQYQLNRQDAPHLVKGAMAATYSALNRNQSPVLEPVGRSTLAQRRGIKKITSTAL

For `CN(C)C/C=C/C(=O)Nc1ccc(C(=O)N2CCCC(Nc3ncc(Cl)c(-c4c[nH]c5ccccc45)n3)C2)cc1` (centres undefined), the % of control in assay [1] was 100%.
`CC(=O)Nc1cccc(-n2c(=O)n(C3CC3)c(=O)c3c(Nc4ccc(I)cc4F)n(C)c(=O)c(C)c32)c1` had a % of control in assay [2] of 97%.
As to `CN(C)CCOc1ccc(-c2nc(-c3ccncc3)c(-c3ccc4c(c3)CC/C4=N\O)[nH]2)cc1`, the values for the % of control in [3] and in assay [4] were 49% and 100%, respectively.
Turning to `C=CC(=O)Nc1cc(-n2c(=O)ccc3cnc4ccc(-c5ccc(NS(C)(=O)=O)cc5)cc4c32)ccc1C`, the % of control in assay [5] was 88%.
Turning to `CNC(=O)Nc1ccc(-c2nc(N3CC4CCC(C3)O4)c3cnn(C4CCC5(CC4)OCCO5)c3n2)cc1`, the % of control in assay [6] was 93%.
`CC[C@@H]1[C@H](F)C(=O)N[C@@H]1COc1nccc2cc(C(N)=O)c(OC)cc12` [ZIMLOVISERTIB] gave a % of inhibition in [7] of 1.87%.
Take `COCC(=O)NC/C=C/c1ccc2ncnc(Nc3ccc(Oc4ccc(C)nc4)c(C)c3)c2c1` [CP-724714]: in assay [8], the % of control is 100%.
As for `O[C@H]1CC[C@H](Nc2ncc3nc(Nc4c(F)cc(F)cc4F)n([C@H]4CCOC4)c3n2)CC1`, the % of control in assay [9] was determined as 100%.
